Test results as given in patent US9932320B2 (BRISTOL-MYERS SQUIBB COMPANY, priority 2014, dated 2018).

What follows are molecules tested against T1, AAK1 (GST-Xa-hAAK1) (Homo sapiens, UniProt Q2M2I8) (assay: AAK1 Kinase Assay (Caliper LabChip, fluoresceinated peptide substrate)). Settings: AAK1 functional potency; class symbols; read-out: IC50 (nM), functional potency as IC50 ranges.
T1 construct: made in house
Assay type: biochemical
Experimental: The assays were performed in U-bottom 384-well plates. The final assay volume was 30 μl prepared from 15 μl additions of enzyme and substrates (fluoresceinated peptide (5-FAM)-Aha-KEEQSQITSQVTGQIGWR-NH2 and ATP) and test compounds in assay buffer (10 mM Tris-HCL pH 7.4, 10 mM MgCl2, 0.01% Tween-20 and 1.0 mM DTT). The reactions were initiated by the combination of bacterially expressed, GST-Xa-hAAK1 with substrates and test compounds. The reactions were incubated at room temperature for 3 hours and terminated by adding 60 μl of 35 mM EDTA buffer to each sample. The reactions were analyzed on the Caliper LabChip 3000 (Caliper, Hopkinton, Mass.) by electrophoretic separation of the fluorescent substrate and phosphorylated product. Inhibition data were calculated by comparison to EDTA quenched control reactions for 100% inhibition and vehicle-only reactions for 0% inhibition. The final concentration of reagents in the assays are ATP, 22 μM; (5-FAM)-Aha-KEEQSQITSQVTGQIGWR-NH2, 1.5 μM; GST-Xa-hAAK1, 3.5 nM; and DMSO, 1.6%. Dose response curves were generated to determine the concentration required inhibiting 50% of kinase activity (IC50). Compounds were dissolved at 10 mM in dimethylsulfoxide (DMSO) and evaluated at eleven concentrations. IC50 values were derived by non-linear regression analysis.

T1 sequence (Q2M2I8 whole entry): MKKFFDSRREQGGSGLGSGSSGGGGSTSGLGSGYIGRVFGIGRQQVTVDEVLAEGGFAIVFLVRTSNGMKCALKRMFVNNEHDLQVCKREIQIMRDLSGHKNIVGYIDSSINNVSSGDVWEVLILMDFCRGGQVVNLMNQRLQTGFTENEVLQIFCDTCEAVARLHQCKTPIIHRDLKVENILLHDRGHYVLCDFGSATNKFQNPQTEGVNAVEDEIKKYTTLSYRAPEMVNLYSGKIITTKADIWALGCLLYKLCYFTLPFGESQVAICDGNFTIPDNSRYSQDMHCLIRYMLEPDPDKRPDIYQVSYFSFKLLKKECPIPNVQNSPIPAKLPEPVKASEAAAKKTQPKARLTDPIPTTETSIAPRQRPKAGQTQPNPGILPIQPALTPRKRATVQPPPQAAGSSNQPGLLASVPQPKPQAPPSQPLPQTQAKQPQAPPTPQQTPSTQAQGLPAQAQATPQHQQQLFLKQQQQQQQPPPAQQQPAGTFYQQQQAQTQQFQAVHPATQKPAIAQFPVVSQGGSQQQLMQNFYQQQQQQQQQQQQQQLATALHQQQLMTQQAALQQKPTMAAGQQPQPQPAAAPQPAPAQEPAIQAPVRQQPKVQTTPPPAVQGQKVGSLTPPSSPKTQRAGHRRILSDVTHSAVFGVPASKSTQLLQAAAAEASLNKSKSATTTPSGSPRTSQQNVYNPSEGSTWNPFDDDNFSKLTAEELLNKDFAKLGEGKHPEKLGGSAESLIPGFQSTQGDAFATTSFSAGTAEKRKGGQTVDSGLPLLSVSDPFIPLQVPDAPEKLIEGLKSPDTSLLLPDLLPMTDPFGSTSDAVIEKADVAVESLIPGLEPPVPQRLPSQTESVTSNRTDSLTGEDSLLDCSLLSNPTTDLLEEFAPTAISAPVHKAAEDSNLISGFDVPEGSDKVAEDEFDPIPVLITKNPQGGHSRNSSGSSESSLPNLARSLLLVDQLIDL

Structure (SMILES) | IC50 [nM]
CC(=O)Nc1cc(-c2ccc3nc(C(=O)CC(C)C)ccc3c2)ccn1 [Example 30, N-(4-(2-(3-methylbutanoyl)quinolin-6-yl)pyridin-2-yl)acetamide] | 101 to 2500
CC(C)CC(N)c1ccc2cc(-c3ccnc(NC(=O)c4ccc(C(F)(F)F)cc4)c3)ccc2n1 (centres unmarked) [Example 42, N-(4-(2-(1-amino-3-methylbutyl)quinolin-6-yl)pyridin-2-yl)-4-(trifluoromethyl)benzamide] | 11 to 100
COc1cc2nc(C(N)CC(C)C)cc(C#N)c2cc1-c1cnco1 (single isomer, unassigned; (-)) [Example 12, (−)-2-(1-Amino-3-methylbutyl)-7-methoxy-6-(oxazol-5-yl)quinoline-4-carbonitrile] | 11 to 100
CC(C)CCc1nc2ccc(-c3ccncc3)cc2cc1C(N)=O [Example 17, 2-Isopentyl-6-(pyridin-4-yl)quinoline-3-carboxamide] | 101 to 2500
CC(C)CC(N)c1ccc2cc(-c3cc(N)nc4ccccc34)ccc2n1 (single isomer, unassigned) [Example 48, 2′-(1-amino-3-methylbutyl)-4,6′-biquinolin-2-amine] | 101 to 2500
CC(C)Cc1cnc2ccc(-c3ccncc3)cc2c1O [Example 15, 3-Isobutyl-6-(pyridin-4-yl)quinolin-4-ol] | 101 to 2500
COc1cc(CCC(C)C)nc2ccc(-c3ccncc3)cc12 [Example 2, 2-Isopentyl-4-methoxy-6-(pyridin-4-yl)quinoline] | 101 to 2500
CC(=O)Nc1cc(-c2ccc3nc(C(N)C4CCCCC4)ccc3c2)ccn1 (centres unmarked) [Example 36] | 1 to 10
CC(C)CC(N)c1ccc2cc(-c3ccnc4ccccc34)ccc2n1 (centres unmarked) [Example 26, 1-([4,6′-biquinolin]-2′-yl)-3-methylbutan-1-amine] | 11 to 100
CC(C)CC(N)c1ccc2cc(-c3ccncc3)ccc2n1 (single isomer, unassigned; (+)) [Example 21, (+)-3-methyl-1-(6-(pyridin-4-yl)quinolin-2-yl)butan-1-amine] | 11 to 100
CC(C)CC(N)c1ccc2cc(-c3ccnc(NC(=O)c4cccc(F)c4)c3)ccc2n1 (centres unmarked) [Example 35, N-(4-(2-(1-amino-3-methylbutyl)quinolin-6-yl)pyridin-2-yl)-3-fluorobenzamide] | 11 to 100
COc1cc2nc(CCC(C)C)cc(C#N)c2cc1-c1cnco1 [Example 11, 2-Isopentyl-7-methoxy-6-(oxazol-5-yl)quinoline-4-carbonitrile] | 11 to 100
CC(C)CC(N)c1ccc2cc(-c3ccnc4[nH]ccc34)ccc2n1 (centres unmarked) [Example 25, 1-(6-(1H-pyrrolo[2,3-b]pyridin-4-yl)quinolin-2-yl)-3-methylbutan-1-amine] | 1 to 10
COc1cc2nc(CCC(C)C)cc(O)c2cc1-c1cnco1 [Example 9, 2-Isopentyl-7-methoxy-6-(oxazol-5-yl)quinolin-4-ol] | 11 to 100
N#Cc1cc(C(N)C2CCCCC2)nc2ccc(-c3ccncc3)cc12 (centres unmarked) [Example 41, 2-(amino(cyclohexyl)methyl)-6-(pyridin-4-yl)quinoline-4-carbonitrile] | 101 to 2500
CC(C)CC(=O)c1ccc2cc(-c3ccncc3)ccc2n1 [Example 19, 3-methyl-1-(6-(pyridin-4-yl)quinolin-2-yl)butan-1-one] | 101 to 2500
CC(C)CCc1nc2ccc(-c3ccncc3)cc2c(O)c1Br [Example 16, 3-Bromo-2-isopentyl-6-(pyridin-4-yl)quinolin-4-ol] | 11 to 100
COc1cc2nc(CCC(C)C)cc(Br)c2cc1-c1cnco1 [Example 10, 5-(4-Bromo-2-isopentyl-7-methoxyquinolin-6-yl)oxazole] | 11 to 100
CC(C)CCc1cc(O)c2cc(-c3ccncc3)ccc2n1 [Example 1, 2-Isopentyl-6-(pyridin-4-yl)quinolin-4-ol] | 11 to 100
CC(C)CCc1cc(Br)c2cc(-c3ccncc3)ccc2n1 [Example 3, 4-Bromo-2-isopentyl-6-(pyridin-4-yl)quinoline] | 11 to 100

Structure (SMILES) | IC50 [nM]
CC(C)CC(N)c1ccc2cc(-c3ccnc(C4CC4)c3)ccc2n1 (centres unmarked) [Example 50, 1-(6-(2-cyclopropylpyridin-4-yl)quinolin-2-yl)-3-methylbutan-1-amine] | 101 to 2500
COc1cnccc1-c1ccc2nc(C(N)CC(C)C)ccc2c1 (single isomer, unassigned; (+)) [Example 22, (+)-1-(6-(3-methoxypyridin-4-yl)quinolin-2-yl)-3-methylbutan-1-amine] | 101 to 2500
COc1cc(-c2ccc3nc(C(N)CC(C)C)ccc3c2)ccn1 (centres unmarked) [Example 24] | 101 to 2500
CC(C)CCc1cc(C#N)c2cc(-c3ccncc3)ccc2n1 [Example 6, 2-Isopentyl-6-(pyridin-4-yl)quinoline-4-carbonitrile] | 11 to 100
CC(C)CC(N)c1ccc2cc(-c3ccnc(N)c3)ccc2n1 (centres unmarked) [Example 29, 4-(2-(1-amino-3-methylbutyl)quinolin-6-yl)pyridin-2-amine] | 1 to 10
CC(C)CCc1cc(N(C)C)c2cc(-c3ccncc3)ccc2n1 [Example 5, 2-Isopentyl-N,N-dimethyl-6-(pyridin-4-yl)quinolin-4-amine] | 11 to 100
CC(C)CC(N)c1ccc2cc(-c3ccc4cnccc4c3)ccc2n1 (centres unmarked) [Example 27, 1-(6-(isoquinolin-6-yl)quinolin-2-yl)-3-methylbutan-1-amine] | 101 to 2500
CC(C)C[C@H](N)c1cc(C#N)c2cc(-c3ccncc3)ccc2n1 (single isomer, unassigned) [Example 8] | 1 to 10
CC(C)CCc1cc(=S)c2cc(-c3ccncc3)ccc2[nH]1 [Example 31, 2-isopentyl-6-(pyridin-4-yl)quinoline-4(1H)-thione] | 11 to 100
CC(C)CCc1nc2ccc(-c3ccncc3)cc2cc1C#N [Example 18, 2-Isopentyl-6-(pyridin-4-yl)quinoline-3-carbonitrile] | 101 to 2500
CC(C)CC(N)c1cc(C#N)c2cc(-c3ccncc3)cc(F)c2n1 (centres unmarked) [Example 44, 2-(1-amino-3-methylbutyl)-8-fluoro-6-(pyridin-4-yl)quinoline-4-carbonitrile] | 11 to 100
CC(C)CC(N)c1cc(-c2nnn[nH]2)c2cc(-c3ccncc3)ccc2n1 (centres unmarked) [Example 37, 3-methyl-1-(6-(pyridin-4-yl)-4-(1H-tetrazol-5-yl)quinolin-2-yl)butan-1-amine] | 1 to 10
COc1cnccc1-c1ccc2nc(C(N)CC(C)C)ccc2c1 (single isomer, unassigned; (-)) [Example 23, (−)-1-(6-(3-methoxypyridin-4-yl)quinolin-2-yl)-3-methylbutan-1-amine] | 101 to 2500
CC(=O)Nc1cc(-c2ccc3nc(C(N)CC(C)C)ccc3c2)ccn1 (single isomer, unassigned) [Example 34, N-(4-(2-(1-amino-3-methylbutyl)quinolin-6-yl)pyridin-2-yl)acetamide] | 1 to 10
CC(C)CC(N)c1ccc2cc(-c3ccncc3)ccc2n1 (single isomer, unassigned; (-)) [Example 20, (−)-3-methyl-1-(6-(pyridin-4-yl)quinolin-2-yl)butan-1-amine] | 11 to 100
CC(=O)Nc1cc(-c2ccc3nc(C(N)CC(C)C)ccc3c2)c2ccccc2n1 (single isomer, unassigned) [Example 46, N-(2′-(1-amino-3-methylbutyl)-4,6′-biquinolin-2-yl)acetamide] | 101 to 2500
CC(C)CC(N)c1ccc2cc(-c3ccnc(N(C)C)n3)ccc2n1 (centres unmarked) [Example 28, 4-(2-(1-amino-3-methylbutyl)quinolin-6-yl)-N,N-dimethylpyrimidin-2-amine] | 11 to 100
CC(C)CC(N)c1ccc2cc(-c3cc(N)nc4ccccc34)ccc2n1 (single isomer, unassigned) [Example 49, 2′-(1-amino-3-methylbutyl)-4,6′-biquinolin-2-amine] | 101 to 2500
NC(=O)c1cc(C(N)C2CCCCC2)nc2ccc(-c3ccncc3)cc12 (single isomer, unassigned) [Example 40, 2-(amino(cyclohexyl)methyl)-6-(pyridin-4-yl)quinoline-4-carboxamide] | 101 to 2500
CCc1cc(C(N)CC(C)C)nc2ccc(-c3ccncc3)cc12 (racemic) [Example 43, 1-(4-ethyl-6-(pyridin-4-yl)quinolin-2-yl)-3-methylbutan-1-amine] | 11 to 100

Same assay, conditions: AAK1 functional potency; numeric values; read-out: IC50 (nM), functional potency

Structure (SMILES) | IC50 [nM]
CC(C)C[C@@H](N)c1cc(C#N)c2cc(-c3ccncc3)ccc2n1 (single isomer, unassigned) [Example 7] | 12
NC(=O)c1cc(C(N)C2CCCCC2)nc2ccc(-c3ccncc3)cc12 (single isomer, unassigned) [Example 39, 2-(amino(cyclohexyl)methyl)-6-(pyridin-4-yl)quinoline-4-carboxamide] | 54
COc1cc2nc(C(N)CC(C)C)cc(C#N)c2cc1-c1cnco1 (single isomer, unassigned; (+)) [Example 13, (+)-2-(1-Amino-3-methylbutyl)-7-methoxy-6-(oxazol-5-yl)quinoline-4-carbonitrile] | 4.1
CC(=O)Nc1cc(-c2ccc3nc(C(N)CC(C)C)ccc3c2)c2ccccc2n1 (single isomer, unassigned) [Example 47, N-(2′-(1-amino-3-methylbutyl)-4,6′-biquinolin-2-yl)acetamide] | 1200
